# Source: patent US9980972B2, “Rho kinase inhibitors for use in treating familial amyotrophic lateral sclerosis” (GEORG-AUGUST-UNIVERSITÄT GÖTTINGEN STIFTUNG ÖFFENTLICHEN …, priority 2012, dated 2018)
# Legend:
# [1] = test system: wildtype primary motoneurons in astrocyte/motoneuron co-culture; assay: Kainic acid toxicity in astrocyte/motoneuron co-culture; assay type: cell-based; details: KA exposure 24 h, Fasudil 4 or 20 μM, co-culture with astrocytes
# Source text: In order to compare the Fasudil neuroprotective effect on motoneurons in vivo with an corresponding in vitro paradigm the inventors subjected wildtype primary motoneurons cultured in a astrocyte/motoneuron co-culture to kainic acid (KA) toxicity.
# [2] = test system: SOD1 G93A mouse model of ALS; assay: Rotarod test (motor coordination), time to failure of 180 s; assay type: in vivo
# Source text: From a patient's point of view overall survival is not the only parameter of a successful therapy. Many recent therapeutic studies in humans rather evaluate an increased time with improved quality of life. An improved motor function could be one parameter that is relevant for the quality of daily life and therefore the inventors chose two different tests to monitor motor function in the present animal model. The rotarod test evaluates fine motor coordination and is a very sensitive test for the ability to move on an unstable underground. Evaluating motor coordination by subjecting the animals to the rotarod test, the presymptomatic female treatment group failed later in the task to reach a total running time of 180 s (122.5 days) in comparison to the vehicle-treated group (114.2 days).
# [3] = test system: spinal cord astroglia of SOD1 G93A mice; assay: GFAP positive astrocytes in ventral horn of lumbar spinal cord (astrogliosis); assay type: in vivo, mouse; details: for numbers of GFAP positive astroglia: time of death, presymptomatic
# Procedure: After deep anaesthesia, mice were transcardially perfused with PBS solution followed by 4% paraformaldehyde. Spinal cords, sciatic nerves and gastrocnemius muscles were removed. Spinal cords and gastrocnemius muscles were then postfixed for 2 h in 4% paraformaldehyde. Thereafter, the tissue was dehydrated in 30% sucrose overnight and kept at −20° C. until further processing. Coronal sections of the lumbar spinal cord (L3-L6) (20 μm) and horizontal sections of the tibial muscle (35 μm) were prepared using a Leica Kryostat and collected on gelatine-coated glass slides.
# (§1) Spinal cord sections selected for immunohistochemical processing were first rehydrated. Then antigen-retrieval was performed for 4 h in TBS at 60° C. for later GFAP or Iba1 labeling and for 30 min in sodium citrate (pH 9.0) at 80° C. for later ChAT labeling. After washing for one time in PBS the sections were incubated at room temperature either in PBS and 10% of normal goat serum for later GFAP labeling or in PBS and 5% normal donkey serum for later ChAT labeling to block unspecific binding. The primary antibodies (anti-ChAT 1:100, AB144 P, Millipore; anti-GFAP 1:200, DAKO; anti-Iba1 1:500, WAKO, Osaka, Japan) were applied at 4° C. for one night for GFAP and for three nights for ChAT. The secondary antibodies (Cy3 anti-goat or Cy2/Dylight anti rabbit; both Dianova) were applied on separate sections 1:300 for 1 h at room temperature. Then a nuclear counter-stain with DAPI (4,6-diamidino-2-phenylindole) (Sigma-Aldrich) was performed before mounting in Moviol (Hoechst, Frankfurt, Germany).
# (§2) Astrogliosis and microgliosis were evaluated by the quantification of GFAP or Iba1 positive cells in the ventral horn of lumbar spinal cord sections, respectively. Again, the area of the ventral horn was defined and GFAP or Iba1 positive cells were manually counted. In the d50 treatment group analyzed at death, a total of 20 mice was counted from the vehicle (3 male, 3 female), Fas30 (3 male, 3 female), Fas100 (3 male, 3 female) and wildtype (1 male, 1 female) group. In the d50 treatment group analyzed at d100, a total of 20 mice was counted from the vehicle (3 male, 3 female), Fas30 (3 male, 3 female), Fas100 (3 male, 3 female) and wildtype (1 male, 1 female) group.
# Reactive astrogliosis represents another parameter in the evaluation of histologic manifestation of ALS disease. In human ALS patients, the clinical progression of this neurodegenerative disease seems to be associated with changes in astrocytic cell infiltration in the spinal cord. Therefore, the inventors evaluated the extent of astrogliosis in the lumbar spinal cord by counting the number of GFAP positive astroglial cells in the ventral horn and normalized values to area (FIG. 12).
# [4] = test system: spinal cord microglia of SOD1 G93A mice; assay: Iba1 immunopositive microglia count in spinal cord anterior horn; assay type: in vivo, mouse
# Procedure: as §1, §2
# The extent of microglial cell dissemination in the lumbar spinal cord was evaluated with a marker of activated microglia (Iba1) as described above under the heading “Quantitative evaluation of spinal cord motoneurons and astroglia, sciatic nerve axons and NMJ”.
# [5] = test system: SOD1 G93A mouse model of ALS; assay: Disease duration (onset until death) in SOD1 G93A mice; assay type: in vivo
# Source text: Disease duration. This parameter was selected in order analyze the treatment effects under a clinically relevant situation of the time from disease onset until death. Disease duration is defined as beginning from the appearance of the first clinical symptoms until death.
structure (smiles),measurement,setting,value
"O=S(=O)(c1cccc2cnccc12)N1CCCNCC1 [Fasudil, 1-(5-isoquinolinesulfonyl)homopiperazine]",survival of KA exposed motoneurons,[1],protected motoneurons from KA induced cell death
same,rotarod performance,"[2]; male, presymptomatic Fas30",slight non-significant trend to improved performance
same,time to failure to reach 180 s rotarod running time,"[2]; presymptomatic female treatment group, vehicle 114.2 days",122.5 days
same,rotarod performance,[2]; symptomatic treatment,not able to improve rotarod performances
same,GFAP cell number,"[3]; day 100, female, presymptomatic Fas30 vs transgenic vehicle",significantly reduced
same,numbers of GFAP positive astroglia,"[3]; Fas30 female, vehicle female 28.91±4.7",31.6±5.9 per 0.2 mm^2
same,numbers of GFAP positive astroglia,"[3]; Fas30 male, vehicle male 31.3±4.7",38.2±4.4 per 0.2 mm^2
same,numbers of GFAP positive astroglia,"[3]; Fas100 female, vehicle female 28.91±4.7",27.9±4.0 per 0.2 mm^2
same,numbers of GFAP positive astroglia,"[3]; Fas100 male, vehicle male 31.3±4.7",29.24±4.5 per 0.2 mm^2
same,Iba1 immunopositive microglial cells,"[4]; d100, Fasudil 30, vehicle SOD1G93A 27.8±4.7, wildtype 14.0±2.8",39.5±3.9 cells/0.5 mm^2
same,Iba1 immunopositive microglial cells,"[4]; disease end-stage, Fas30, vehicle 43.2±4.2",48.8±3.3 cells/0.5 mm^2
same,Iba1 immunopositive microglial cells,"[4]; disease end-stage, Fas100, vehicle 43.2±4.2",50.2±4.7 cells/0.5 mm^2
same,disease duration,[5]; presymptomatically treated female mice,prolonged time
same,disease duration,[5]; symptomatically treated groups,did not show any significant alterations
